Assay results published in patent US20150190416A1, “FILAGGRIN PRODUCTION PROMOTER, THERAPEUTIC AGENT FOR DISEASES ASSOCIATED WITH REDUCTION IN PRODUCTION OF FILAGGRIN, AND METHOD FOR SCREENING FOR SAID THERAPEUTIC AGENT” (KYOTO UNIVERSITY, priority 2012, published 2015).

What was measured:
Type in all cases: cell-based, human
GPR22 = assay: Blocking effect by GPR22 RNAi in NHEK cells (Reference Example 1); conditions: calcium priming, siRNA 10 nM, Compound 1 10 nM, 1 day
Protocol: (§1) 1) 5×10^4 cells/well of NHEK cells (Invitrogen) were plated on a 24-well plate. Then, 500 μl of a culture medium containing a medium for proliferating normal human epidermal keratinocytes (HuMedia-KG2, KURABO INDUSTRIES LTD.) supplemented with hEGF (0.1 ng/ml), insulin (10 μg/ml), hydrocortisone (0.5 μg/ml), gentamycin (50 μg/ml), amphotericin B (50 ng/ml), and bovine brain pituitary extract (BPE) (0.4%, v/v) were added to the plate, and the cells were cultured under the conditions of 37° C. and 5% CO2.
2) 1 day after the step 1), the medium was exchanged for the medium supplemented with calcium every day, and culture was conducted for 2 days (priming).
3) The NHEK cells of the step 2) were transfected with 10 nM of siRNA per well of the 24-well plate by using a transfection reagent, Lipofectamine RNA Max (Invitrogen) according to the manufacturer's protocol.
4) After culture for 1 day after the step 3), the medium was exchanged for a medium to which Compound 1 dissolved in DMSO was added at 10 nM per well on the 24-well plate, and culture was conducted for 1 day. As a control example, a solvent only (vehicle) was added.
5) An extraction reagent (TRIzol™, Invitrogen) was used, and according to the manufacturer's protocol, total RNA was extracted from each of cells treated with the medicament. A reverse transcriptase reagent (Prime Script™, Takara) was used, and according to the manufacturer's protocol, cDNA was prepared from the total RNA. Real-time PCR was conducted by using SYBR™ Premix Ex Taq (Takara) with a CFX96 real-time PCR instrument according to the manufacturer's protocol, and the amounts of GPR22 mRNA and FLG mRNA were measured. The results of measurement are shown as a GAPDH ratio.

GPR142 [1] = assay: G protein-coupled receptor (GPCR) array in NHEK cells, GPR142 (Example 3); conditions: Compound 1 1 μM, 3 days
Protocol: In this example, the expression-increasing effect of Compound 1 on a GPCR in NHEK cells was confirmed by using a GPCR array.
as §1, with “plate, and then” for “plate. Then,”, “CO2 for from 3 to 4 days until the 80 to 85% confluent state was achieved.” for “CO2.”
2) Next, a DMSO solution of Compound 1 was added to the medium at 1 μM per well, and culture was further conducted for 3 days without changing the medium. In addition, regarding the system to which only CaCl2 (1.5 mM in terms of Ca) as Ca was added and the system to which both Compound 1 and CaCl2 (1.5 mM in terms of Ca) as Ca were added, the culture was conducted in a similar manner for 3 days. As a control example, a solvent only (vehicle) was added.
3) An extraction reagent (TRIzol™, Invitrogen) was used, and according to the manufacturer's protocol, total RNA was extracted from each of cells treated in the step 2). A reverse transcriptase reagent (Prime Script™, Takara) was used, and according to the manufacturer's protocol, cDNA was prepared from the total RNA. Next, a TaqMan™ human GPCR array (AB 4365295, Applied Biosystems) was used, and the analysis was conducted by an ABI PRISM™ 7900HT gene analyzer (Applied Biosystems). The result of measurement was shown as the comparison of the cycle number (ΔCt value) to 18S ribosomal RNA as a control (comparative Ct method).

GPR142 [2] = assay: Blocking effect by GPR142 RNAi in NHEK cells (Examples 5 and 6); conditions: calcium priming, siRNA 50 nM, Compound 1 10 nM, 1 day
Protocol: In this example, it was confirmed that the expression-inducing effects of Compound 1 on GPR142 mRNA and FLG mRNA in NHEK cells were blocked by GPR142 RNAi.
as §1
2) After culture under the conditions of the step 1) for 1 day, the medium was exchanged for the culture medium of the step 1) to which CaCl2 (1.2 mM in terms of Ca) was further added as Ca, and culture was conducted under the conditions of 37° C. and 5% CO2. After culture for 1 day, the medium was exchanged for the same culture medium containing Ca, and culture was further conducted for 1 day.
3) The NHEK cells of the step 2) were transfected with 50 nM of siRNA per well of the 24-well plate by using a transfection reagent, Lipofectamine RNA Max (Invitrogen) according to the manufacturer's protocol.
The sequences of the used three kinds of GPR142 siRNAs and the sequences of the used control siRNAs (all the siRNAs are manufactured by Invitrogen) are described below.
4) After culture for 1 day after the transfection with siRNA in the step 3), the medium was exchanged for the culture medium of the step 1) to which a DMSO solution of Compound 1 was added at 10 nM per well, and culture was further conducted for 1 day. As a control, a solvent only (vehicle) was added.
5) An extraction reagent (TRIzol™, Invitrogen) was used, and according to the manufacturer's protocol, total RNA was extracted from each of cells treated with the medicament. A reverse transcriptase reagent (Prime Script™, Takara) was used, and according to the manufacturer's protocol, cDNA was prepared from the total RNA. Next, real-time PCR was conducted by using the following primers and SYBR™ Premix Ex Taq (Takara) with a CFX96 real-time PCR instrument according to the manufacturer's protocol, and the amounts of GPR142 mRNA and FLG mRNA expression were measured. The result of measurement is shown as a GAPDH ratio.
In this example, it was confirmed that the expression-inducing effects of Compound 2 or 3 on GPR142 mRNA and FLG mRNA in NHEK cells were blocked by GPR142 RNAi.
NHEK cells were transfected in the same manner as in Example 5 except that, in the steps 1) to 3) of Example 5, two kinds of GPR142 siRNAs and two kinds of control siRNAs, i.e., GPR142-1 (#HSS139493) and GPR142-3 (#HSS179846) and Control-1 (LOW GC, #129350-200), and Control-3 (HIGH GC, #129350-400) were used as GPR142 siRNAs and control siRNAs, respectively. After culture for 1 day after the transfection was conducted in the same manner as in the step 4) of Example 5, the medium was exchanged for the culture medium to which each of a DMSO solution of Compound 1, a DMSO solution of Compound 2, or a methanol solution of Compound 3 was added at 10 nM per well, and culture was further conducted for 1 day. As a control, a solvent only (vehicle) was added. Regarding each of cells treated with the medicament, real-time PCR was conducted to measure the amounts of GPR142 mRNA and FLG mRNA in the same manner as in the step 5) of Example 5. The results of the measurement are shown as a GAPDH ratio.

GPR142 mRNA = GPR142 mRNA expression in NHEK cells, real-time PCR (Example 4); conditions: Compound 1 1 μM, Ca 1.2 mM, 3 days, compared to the control
Protocol: In this example, the expression-inducing effects of Compound 1 on GPR142 mRNA and GPR22 mRNA in NHEK cells were confirmed.
as §1
2) After culture under the conditions of the step 1) for 1 day, the medium was exchanged for the culture medium of the step 1) to which a DMSO solution of Compound 1 was added at 1 μM per well every day and the culture was conducted for 3 days. […]
3) An extraction reagent (TRIzol™, Invitrogen) was used, and according to the manufacturer's protocol, total RNA was extracted from each of cells treated with the medicament. […] Next, real-time PCR was conducted by using the following primers and SYBR™ Premix Ex Taq (Takara) with a CFX96 real-time PCR instrument according to the manufacturer's protocol, and the amounts of GPR142mRNA and GPR22mRNA expression were measured. […]

[Ca+2].[Cl-].[Cl-] [Calcium, CaCl2, reference compound]
FLG mRNA expression in the presence of GPR22 siRNA (GPR22): not suppressed
GPR22 mRNA expression in the presence of GPR22 siRNA (GPR22): suppressed by GPR22 siRNA
GPR142 mRNA expression (GPCR array), in words (GPR142 [1]; Ca 1.5 mM): induced GPR142 mRNA expression
GPR142: cycle number (ΔCt value) to 18S ribosomal RNA (GPR142 [1]; CaCl2 1.5 mM in terms of Ca, control 29.2): −4.9
FLG mRNA expression in the presence of GPR142 siRNA (GPR142 [2]): suppressed by GPR142 siRNA
GPR142 mRNA expression in the presence of GPR142 siRNA (GPR142 [2]): suppressed by GPR142 siRNA
GPR142 mRNA expression (GAPDH ratio) (GPR142 mRNA): GPR142 mRNA expression was induced
